From the NIST ThermoML archive (doi:10.1021/acs.jced.6b00180)
± gives the expanded uncertainty stated by the source.

Assays:
[1] = refractive index (Na D-line) (dimensionless); conditions: 293.15 K; 101.33 kPa; Liquid; Standard Abbe refractometry
[2] = Liquid, Ebulliometric method (Recirculating still)
[3] = Boiling temperature at pressure P; conditions: 101.33 kPa; Liquid; Ebulliometric method (Recirculating still)

SMILES | refractive index [1] | Boiling temperature at pressure P [3] | also measured
C=CC(=C)C [2-methyl-1,3-butadiene] | 1.4218 ± 0.0005 |  | vapor or sublimation pressure ([2]; 336.35 K): 250 ± 13 kPa
CC=C(C)C [2-methyl-2-butene] | 1.3876 ± 0.0005 |  | vapor or sublimation pressure ([2]; 341.15 K): 250 ± 13 kPa
CC(C)=O [acetone] | 1.3586 ± 0.0005 | 56.2 ± 1 °C | vapor or sublimation pressure ([2]; 329.35 K): 101.3 ± 5.1 kPa
C1CCCC1 [cyclopentane] | 1.4064 ± 0.0005 |  | vapor or sublimation pressure ([2]; 352.85 K): 250 ± 13 kPa
C1=CCCC1 [cyclopentene] | 1.4224 ± 0.0005 |  | vapor or sublimation pressure ([2]; 347.35 K): 250 ± 13 kPa
CCCCCC [hexane] | 1.3748 ± 0.0005 |  | 
CCCCC [pentane] | 1.3578 ± 0.0005 |  | vapor or sublimation pressure ([2]; 338.35 K): 250 ± 13 kPa

The next lines start with results.

refractive index [1] | Boiling temperature at pressure P [3] | SMILES | also measured
1.3535 ± 0.0005 |  | CCC(C)C [2-methylbutane] | vapor or sublimation pressure ([2]; 330.05 K): 250 ± 13 kPa
1.3613 ± 0.0005 | 78.4 ± 1 °C | CCO [ethanol] | vapor or sublimation pressure ([2]; 351.55 K): 101.3 ± 5.1 kPa
1.3286 ± 0.0005 | 64.7 ± 1 °C | CO [methanol] | 
